According to patent US20240262845A1, “PYRIDINIUM SALTS, METHODS OF MAKING, AND METHODS OF USE” (UNIVERSITY OF WYOMING, priority 2023, published 2024):
Where a name gives a salt, the structure may show the parent alone.

Tests used:
β2-Microglobulin = target: T1, β2-Microglobulin (Homo sapiens, UniProt P61769); assay: Photochemical labeling of β2-microglobulin with pyridinium salt (General Procedure B, LC/MS); type: biochemical; conditions: trypsin digest
T1 construct: β2-microglobulin (Human Urine ≥98% (SDS-PAGE)); purchased Lee Biosolutions; host or cells: human urine
T1 sequence (P61769 21-119): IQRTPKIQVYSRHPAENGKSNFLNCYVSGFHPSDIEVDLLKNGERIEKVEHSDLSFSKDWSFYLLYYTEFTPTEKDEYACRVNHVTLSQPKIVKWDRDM
Procedure: General Procedure B: Photochemical Irradiation of Peptides and Proteins: To a 2 mL Pyrex LC/MS vial (Thermo model #03-391-39) were sequentially added solutions containing the desired biomolecule, glutathione (GSH), pyridinium salt, and ammonium acetate (NH4OAc). The resulting solution was diluted to a final volume of 500 μL and then sparged using nitrogen for a minimum of 30 minutes prior to irradiation. The actively sparging solution was then placed in an EvoluChem™ PhotoRedOx Box photoreactor that was equipped with a Kessil, PR160 427 nm LED Lamp and was then irradiated (100% lamp intensity) for the designated time at room temperature while maintaining active sparging. The resultant reaction mixture was then analyzed directly by LC/MS. Analysis of labeling outcomes using LC/MS was performed either by extracted ion chromatogram intensities (method A) or by integrating the area under the peaks associated with peptide content (method B). […]
Labeling of β2-Microglobulin with Pyridinium Salt 2a (β2-Microglobulin-2a Conjugate). […] The reaction mixture was directly analyzed by LC/MS using method A and was estimated to have proceeded with 88% conversion with a >20:1 mono:di labeled ratio and 7% glutathionylation of all unlabeled and labeled protein content. β2-Microglobulin-2a conjugate (retention time (Tr)=3.26-4.70 min). […]

[1] = Fluorescence lifetime and emission measurements; type: physicochemical; conditions: 10 μM in H2O, 375 nm excitation
Procedure: The emission spectra were generated by excitation of a 10 μM solution of either pyridinium salt 2a or pyridinium salt 2b in H2O. Analyses were performed at 375 nm excitation with an emission slit width of 5 nm and an excitation slit width of 5 nm. The emission wavelength was gathered from 400 nm to 600 nm.
FIGS. 9A-9D show fluorescence decay spectra of pyridinium salts 2a and 2b in selected solvents according to at least one embodiment of the present disclosure. Specifically, FIG. 9A is a fluorescence decay spectrum of pyridinium salt 2a in 1,2-dichloroethane, FIG. 9B is a fluorescence decay spectrum of pyridinium salt 2a in CH3CN, FIG. 9C is a fluorescence decay spectrum of pyridinium salt 2a in H2O, and FIG. 9D is a fluorescence decay spectrum of pyridinium salt 2b in H2O. The fluorescent decay spectra were generated with a 1-10 μM solution of pyridinium salt (10 μM for H2O and 1 μM for other solvents) using a GG420 long pass filter and a 375 nm excitation wavelength. The instrument response factor was measured using a highly diluted solution of LUDOX AS-30 colloidal silica in water and a ND1.0 filter. The concentration of LUDOX and the emission slit width were adjusted until the intensity of the instrument response function (IRF) was similar to the fluorescent decay intensity. The procedure given in the EasyLife X User's Manual was followed.

SMILES | Modified Trp (β2-Microglobulin) | relative fluorescence quantum yield ΦF1 of pyridinium salt 2b: pyridinium salt 2a [1]
COC(=O)N(C)[n+]1c(C)cc(-c2ccc3cc(OC)ccc3c2)cc1C [pyridinium salt 2a, 1-((methoxycarbonyl)(methyl)amino)-4-(6-methoxynapthalen-2-yl)-2,6-dimethylpyridin-1-ium tetrafluoroborate] | Trp-60 | 
COc1ccc2cc(-c3cc(C)[n+](N(C)C(=O)OCCCCC[C@H]4SC[C@H]5NC(=O)N[C@H]54)c(C)c3)ccc2c1 (stereo in doubt) [pyridinium salt 2b, 4-(6-methoxynaphthalen-2-yl)-2,6-dimethyl-1-(methyl(((5-((3aR,4R,6aS)-2-oxohexahydro-1H-thieno[3,4-d]imidazol-4-yl)pentyl)oxy)carbonyl)amino)pyridin-1-ium tetrafluoroborate] |  | 3.3
